Laboratory results as given in publication PMC10855164, “Ligand-Based Design of Selective Peptidomimetic uPA and TMPRSS2 Inhibitors with Arg Bioisosteres” (International Journal of Molecular Sciences, 2024).

What was measured:
[1] = Parallel Artificial Membrane Permeation Assay (PAMPA); assay type: in vitro ADME; settings: TRIS 50 mM pH 7.4, 5% DMSO, 7 h at room temperature
Source text: Following the envisioned applications of the presented inhibitors as drug leads for the treatment of cancer or viral infections, cell permeability is an important factor in the characterization process. […] However, in the organismic contexts of oral bioavailability (facilitated application) and biodistribution (reaching target tissue), adequate permeation is an important quality. To assess this characteristic, PAMPA was used as a suitable model for passive permeation.
Figure S5: Stability analyses of a representative set of inhibitors. The depictions consist of compound structure and number, then analysis at t0, then analysis after 7 h at room temperature, then analysis after 12 h at 37 °C. […]
Incubation setup was assembled and left for 7 h at room temperature. Reference solutions were prepared by simply mixing the indicated volumes of donor and acceptor solutions at the start of the incubation period and analyzed later with the acceptor solutions. […]
Measurement setup for spectroscopy consisted of UV-transparent measurement plate (Greiner UV-Star®, 655801), Tecan Spark 10M® well plate reader, 200 µL sample volume, λ = 200–650 nm. […]
Measurement setup for LC/MS consisted of Agilent 1100 series HPLC system coupled to an Agilent 1100 series LC/MSD Trap with electron spray ionization (ESI). […] Retention time and mass spectrum recorded in positive ionization mode were used to assign species. […]

[2] = molecular target: T1, uPA (Homo sapiens, UniProt P00749); assay: fluorometric enzyme inhibition assay, uPA (Z-Gly-Gly-Arg-AMC); assay type: biochemical; settings: for Ki: from IC50 by Cheng-Prusoff, n.a. = not active, <80% inhibition at 20 µM
T1 construct: purchased Sigma Aldrich
Description: The inhibitory activity of the synthesized compounds towards the respective main- and off-target proteases was measured via fluorometric and colorimetric assays. Thus, fluorogenic AMC- or colorimetric pNA-based substrates with a peptide sequence suitable for the tested protease were utilized (see Supplementary Figure S2). At first, the compounds were screened against […] proteases (uPA, TMPRSS2, matriptase, tPA, thrombin, factor Xa) at 20 µM, and a cut-off value of 80% inhibition at this concentration was set, for the differentiation between nonactive (n.a.) and active inhibitors. Due to the reversible inhibition mechanism of the ketobenzothiazole derivates, the IC50 values were determined with Graphpad Prism 9, and afterwards converted to the corresponding Ki values for an adequate comparison between the inhibitory activities of the compounds toward all tested proteases. The Ki values were calculated using the Cheng–Prusoff equation [43].
Fluorometric inhibition assays
The inhibitory activities of the compounds against the proteases were determined by enzyme inhibition assays with fluorogenic or colorimetry-based substrates. The fluorescence, caused by cleaved AMC from the fluorogenic substrates (uPA, matriptase, TMPRSS2, thrombin), was measured in white flat-bottom 96-well plates from Greiner Bio-One using a Tecan Infinite F200 Pro plate reader. The absorption, caused by cleaved pNA from colorimetric substrates (factor Xa and tPA), was measured in transparent flat-bottom 96-well plates from Greiner Bio-One using a Tecan Spark 10M plate reader. All measurements with the main-target proteases (uPA and TMRPSS2) were performed as triplicates and with the off-target proteases (matriptase, factor Xa, tPA, thrombin) as duplicates. The substrates and the compounds were prepared as stock solutions in DMSO. Each well contained a total volume of 200 µL, consisting of 185 µL buffer, 5 µL inhibitor in DMSO or pure DMSO as negative control, 5 µL substrate in DMSO and 5 µL enzyme solution in buffer. Dilution series were prepared for the determination of the inhibition constants. The fluorescence signal and absorbance were measured every 30 s for 10 min at 25 or 37 °C with the corresponding excitation/emission (λex = 380 nm / λem = 460 nm) and absorbance (λabs = 405 nm) wavelengths, depending on the targeted protease. IC50 values for the reversible inhibitors were calculated with Graphpad Prism 9 by fitting the remaining enzymatic activity to the four parameter IC50 equation with Y [%] as the residual enzyme activity , Ymax as the maximum value of the dose response curve at inhibitor concentrations [I] = 0 µM, Ymin as the minimum value at high inhibitor concentrations and s as the hill coefficient.[1] The fluorescence progress curves and sigmoidal dose-response curve for inhibition of uPa by compound 38 is shown exemplary in Figure S2.
Figure S2: (left) Fluorescence progress curves for inhibition of uPa by cpd. 38. (right) Plot showing the respective IC50 value […]
Due to the dependence of the IC50 value on the substrate affinity and concentration, the Ki values were calculated with the Cheng-Prusoff equation, using the final substrate concentration [S] and the Michaelis-Menten constant KM, (2) for appropriate comparison of the inhibitory activities to the other enzymes and inhibitors.[1]
KM values were determined by fitting to the Michaelis-Menten equation using Graphpad Prism 9 with v [ΔF/min] as the substrate hydrolysis rate, vmax as the maximum slope of the dose-response curve, and the substrate [S] concentration.[1] The different substrates were serially diluted in DMSO. The measurement was done in analogy to the determination of the inhibitory activity, but with 5 µL pure DMSO instead of inhibitor solution. The fluorescence progress curves and Michaelis-Menten curve of the specific substrate of uPA is shown exemplarily […]
Figure S3: (left) Fluorescence progress curves of cleavage of Z-Gly-Gly-Arg-AMC by uPA. (right) Michaelis-Menten curve […]

SMILES | Papp at 7 h ([1]; PAMPA, read-out: PAMPA permeability Pe) [×10⁻⁶ cm/s] | Ki [2] [nM] | PAMPA permeability Pe [1] | Selectivity index [SI] uPA ([2]; quotient Ki uPA / Ki TMPRSS2)
CC(=O)NCC(=O)NC(C(=O)NC(C)C(=O)NC(CC1CCC(NC(=N)N)CC1)C(=O)c1nc2ccccc2s1)C(C)O (centres unmarked) [Compound 38] | < 1 | 39 ± 5 |  | 
CC(=O)N[C@@H](Cc1ccccc1)C(=O)N[C@@H](Cc1ccc(NC(=N)N)cc1)C(=O)c1nc2ccccc2s1 [Compound 33] |  | 5260 ± 922 | not enough to exert measurable permeability | 1052
